According to paper PMC8557474, “Reliability of the AR-CALUX®In Vitro Method Used to Detect Chemicals with (Anti)Androgen Activity: Results of an International Ring Trial” (Toxicological Sciences, 2021):
Converted amounts (≈) assume the structure as drawn. Read-outs that look alike come from different tables or passages of the source. Starred links: 1 amine or outer side, 2 acyl side, 3 side chain; linkers in the order of their positions; H or OH if unused. Positions of bridges follow the written chain, without caps; N, C: chain ends. Non-standard residues stand in square brackets, D forms with d. Residues, ends and D or L forms follow the SMILES beside them. Chains are numbered I, II in the order given. Actinocin(9to1) = Cc1c2oc3c(C)ccc(C(=O)[*:1])c3nc-2c(C(=O)[*:2])c(N)c1=O; NMeV = CN[C@H](C(=O)O)C(C)C; Sar = CNCC(=O)O

Key:
androgen receptor [1] = conditions: ref OECD, 2020b; cited from earlier work
androgen receptor [2] = test system: androgen receptor; parameters: method as in Park et al., 2021; conditions: ref Park et al., 2021; cited from earlier work
androgen receptor [3] = conditions: tested at high concentrations (10 µM); ref Sonneveld et al., (2005); cited from earlier work
[4] = molecular target: T1, human androgen receptor (hAR) (Homo sapiens, UniProt P10275); assay: cell-based; assay type: cell-based
T1 construct: host or cells: U2-OS human osteosarcoma cells (ATCC HTB 96), stably transfected (AR-CALUX cell line)
T1 sequence (P10275 1-920): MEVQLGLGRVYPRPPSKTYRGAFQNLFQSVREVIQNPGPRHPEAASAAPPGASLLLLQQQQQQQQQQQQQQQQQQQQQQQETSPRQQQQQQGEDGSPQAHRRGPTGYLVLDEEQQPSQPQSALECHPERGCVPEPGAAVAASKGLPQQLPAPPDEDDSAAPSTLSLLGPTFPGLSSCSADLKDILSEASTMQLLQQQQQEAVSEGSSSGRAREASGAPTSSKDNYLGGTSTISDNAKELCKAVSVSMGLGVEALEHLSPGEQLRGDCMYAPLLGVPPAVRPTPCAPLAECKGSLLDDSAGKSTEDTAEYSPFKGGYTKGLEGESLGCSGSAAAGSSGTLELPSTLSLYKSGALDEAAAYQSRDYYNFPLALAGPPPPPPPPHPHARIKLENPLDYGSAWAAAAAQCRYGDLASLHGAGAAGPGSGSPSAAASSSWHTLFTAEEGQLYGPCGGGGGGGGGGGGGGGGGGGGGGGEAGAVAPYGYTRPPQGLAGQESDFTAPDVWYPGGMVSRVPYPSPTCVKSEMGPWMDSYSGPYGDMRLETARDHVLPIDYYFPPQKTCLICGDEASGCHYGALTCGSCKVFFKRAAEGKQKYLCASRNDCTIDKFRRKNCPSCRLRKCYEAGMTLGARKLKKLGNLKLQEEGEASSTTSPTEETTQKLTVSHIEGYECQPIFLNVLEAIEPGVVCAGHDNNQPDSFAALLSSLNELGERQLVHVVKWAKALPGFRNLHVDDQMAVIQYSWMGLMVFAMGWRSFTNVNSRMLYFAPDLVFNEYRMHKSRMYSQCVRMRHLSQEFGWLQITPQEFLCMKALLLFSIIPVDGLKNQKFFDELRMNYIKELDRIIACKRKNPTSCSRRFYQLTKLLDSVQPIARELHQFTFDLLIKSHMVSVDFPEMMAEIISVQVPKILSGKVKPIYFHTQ
From the text: (§1) The AR-CALUX® cell line was created by BioDetection Systems (BDS). It can be purchased from BDS with a license (https://www.biodetectionsystems.com). The human osteosarcoma cell line U2-OS (ATCC HTB 96) was transfected with 2 constructs: pSG5-neo-hAR carrying the cDNA of a human androgen receptor (hAR) under a constitutive promoter, and, a luciferase reporter gene which is preceded by a triple tandem of AREs in front of a TATA box (3x ARE Luc). […] The AR-CALUX® cell line was obtained from the test method developer BDS. EURL ECVAM prepared a master cell bank and a large working cell bank which were tested for the absence of mycoplasma, bacteria, fungi, and yeast and for the absence of Hepatitis B and C and HIV. In addition, to verifying the authenticity of the cell line, Short Tandem Repeat (STR) profiling was carried out to confirm the test system to be U2-OS cells. […] The laboratories were requested, at the end of each part of the study (Parts 1, 2, and 3), to perform a mycoplasma test of their choice. Additional aliquots were sent to EURL ECVAM for a reanalysis of authenticity.
(§2) Subsequently, the test chemical was assessed with a prescreen run (dilution steps of 10) and simultaneously with the quantitative cytotoxicity test to determine (1) cytotoxic concentrations, (2) the response, and (3) the appropriate dose range to be tested. […] The cytotoxicity test was performed once more. Test chemicals were diluted in media and consisted of 8 serial dilutions. Each dilution was tested in triplicate.
(§3) Each experiment (run) was comprised of a maximum of 6 plates. The first plate would contain 8 serial dilutions of the reference chemical DHT (for agonism) or Flutamide (for antagonism), while the positive and negative controls were added at fixed concentrations. In addition, a solvent control was added (medium without the chemical but with DMSO 0.1%).
A. Positive when the relative induction (Yc) of the test item is ≥ 10% (REF RPC10) for two or more consecutive concentrations.

[5] = molecular target: T1, human androgen receptor (hAR); assay: AR-CALUX antagonist assay (medium spiked with DHT at EC50); assay type: cell-based; conditions: for AR-CALUX Antagonist classification: mean of classifications, specificity control taken into account
From the text: as §1, §2, §3
(§4) For the antagonist assay, the medium was supplemented with DHT at EC50 concentration (standard assay). […] Each antagonist assay was accompanied by a specificity control test carried out on the same plate.
A. Positive (competitive antagonist) when the relative induction (Yc) of the test item is ≤ 80% (REF RPC80) for two or more consecutive concentrations and […]

[6] = molecular target: T1, human androgen receptor (hAR); assay type: cell-based; conditions: for Classification Run1: run 1; for Classification Run3: run 3; for Shift Direction of specificity control dose response: vs standard antagonist dose response
From the text: as §4
the square of the correlation coefficient (R^2) is ≤ 0.9 between the relative induction of the test item (Yc) and its specificity control (Sc)

androgen receptor [7] = test system: androgen receptor; parameters: method as in Park et al., 2021; conditions: ref Park et al., 2021; cited from earlier work; remark: listed apart in the source
physchem = assay: physchem
Experimental: It details the cell cultivation and seeding procedure, the preparation of the reference, control and test chemicals, the procedure for agonist testing and antagonist testing, prescreen runs, and comprehensive runs, as well as data analysis and data interpretation. This SOP also includes references to the SOPs for solubility testing and cytotoxicity testing. […] Solubility was tested both in the solvent and in media under similar circumstances as would be required during the (ant)agonist testing. The initial concentration to be tested was prescribed at 50 mg/ml. Starting from the highest soluble concentration, cytotoxicity was determined with an LDH assay. Visual checking of cytotoxicity in all wells of the plate was however also required for each run.
This included an investigation by heating, centrifugation, microscopy, and visual checking. […] For the purpose of the validation study, the labs were requested to start from 50 mg/ml as the maximal stock concentration to be tested.

[8] = test system: AR-CALUX cell line (U2-OS); assay: Cytotoxicity in the AR-CALUX assay (LDH leakage and visual inspection); assay type: cell-based, human; conditions: agonist assay
Experimental: as §2, with “Each test chemical was firstly tested at the highest soluble concentration, starting from 50 mg/ml. Subsequently,” for “Subsequently,”
Cytotoxicity was evaluated in both the agonist and antagonist assay and was carried out with the LDH test which can be performed in parallel to the agonist/antagonist assay and for which no extra plates have to be prepared. A drawback of this test is that the measurement will occur when leakage happens, ie, when the cell wall is degrading and thus the cell is dead. Early events in the onset of cell death cannot be measured with this test. For this reason, the AR-CALUX® method stated that the cytotoxicity of the exposed cells should also be assessed visually (microscopy).

androgen receptor [9] = test system: androgen receptor; parameters: method as in Kleinstreuer et al., 2017; conditions: ref Kleinstreuer et al., 2017; cited from earlier work

C#C[C@]1(O)CC[C@H]2[C@@H]3CCc4cc(O)ccc4[C@H]3CC[C@@]21C [17α-Ethynyl estradiol]
AR-EcoScreen agonist result in words (androgen receptor [1]): negative
22Rv1/MMTV/GR-KO TA agonist result in words (androgen receptor [2]): positive

CC(=O)[C@H]1CC[C@H]2[C@@H]3CCC4=CC(=O)CC[C@]4(C)[C@H]3CC[C@]12C [Progesterone]
22Rv1/MMTV/GR-KO TA agonist result in words (androgen receptor [2]): positive
RTA in comparison to DHT (androgen receptor [3]): 36%

CC(C)(O)C(=O)Nc1ccc([N+](=O)[O-])c(C(F)(F)F)c1 [Hydroxyflutamide]
AR-CALUX agonist result in words [4]: negative
Agonist classification per run, Lab 1 [4]: N N N
Agonist classification per run, Lab 2 [4]: N N N
Agonist classification per run, Lab 3 [4]: N N N
Agonist classification per run, Lab 4 [4]: N N N
Antagonist classification per run, Lab 1 [5]: P P P
Antagonist classification per run, Lab 2 [5]: P P P
Antagonist classification per run, Lab 3 [5]: P P P
Antagonist classification per run, Lab 4 [5]: P P P
AR-EcoScreen agonist result in words (androgen receptor [1]): negative
22Rv1/MMTV/GR-KO TA agonist result in words (androgen receptor [2]): positive

C[C@]12CC[C@@H]3c4ccc(O)cc4C[C@@H](CCCCCCCCC[S+]([O-])CCCC(F)(F)C(F)(F)F)[C@H]3[C@@H]1CC[C@@H]2O (stereo partly drawn) [Fulvestrant]
AR-CALUX antagonist result in words [5]: false positive
AR-CALUX Antagonist classification [5]: N(FP)
Scn (normalized dose response for the specificity control) [6]: >80%
Classification Run1 ([6]; antagonist): N(FP)
Classification Run3 ([6]; antagonist): N(FP)b
Shift Direction of specificity control dose response [6]: Right

C[C@]12CC[C@@H]3c4ccc(O)cc4CC[C@H]3[C@@H]1CC[C@@H]2O [17β-Estradiol]
AR-EcoScreen agonist result in words (androgen receptor [1]): AR agonist activity
22Rv1/MMTV/GR-KO TA agonist result in words (androgen receptor [2]): AR agonist activity
22Rv1/MMTV/GR-KO TA antagonist result in words (androgen receptor [7]): AR antagonist response

CC(C)(c1ccc(O)cc1)c1ccc(O)cc1 [Bisphenol A]
Agonist classification per run, Lab 1 ([4]; Lab 1, 3 runs): N N N
Agonist classification per run, Lab 2 ([4]; Lab 2, 3 runs): N N N
Agonist classification per run, Lab 3 ([4]; Lab 3, 3 runs): N N N
Agonist classification per run, Lab 4 ([4]; Lab 4, 3 runs): N N N
Antagonist classification per run, Lab 1 ([5]; Lab 1, 3 runs): P P P
Antagonist classification per run, Lab 2 ([5]; Lab 2, 3 runs): P P P
Antagonist classification per run, Lab 3 ([5]; Lab 3, 3 runs): P P P
Antagonist classification per run, Lab 4 ([5]; Lab 4, 3 runs): P P P
IC50 ([5]; logIC50 averaged over 4 labs, 3 valid runs per lab, read-out: Antagonist Overall logIC50 (converted)): 1.38 µM
solubility (physchem; aqueous buffer, kinetic from dmso stock, Solubility in medium, Lab 1): 15 µg/mL (≈ 65.7 µM)
solubility (physchem; aqueous buffer, kinetic from dmso stock, Solubility in medium, Lab 2): > 50 µg/mL
solubility (physchem; aqueous buffer, kinetic from dmso stock, Solubility in medium, Lab 3): > 50 µg/mL
solubility (physchem; aqueous buffer, kinetic from dmso stock, Solubility in medium, Lab 4): > 50 µg/mL
solubility (physchem; organic solvent or mixture, thermodynamic from solid, Solubility in DMSO, Lab 1): > 50000 µg/mL
solubility (physchem; organic solvent or mixture, thermodynamic from solid, Solubility in DMSO, Lab 2): > 50000 µg/mL
solubility (physchem; organic solvent or mixture, thermodynamic from solid, Solubility in DMSO, Lab 3): > 50000 µg/mL
solubility (physchem; organic solvent or mixture, thermodynamic from solid, Solubility in DMSO, Lab 4): > 50000 µg/mL

Cc1c2oc3c(C)ccc(C(=O)N[C@@H]4C(=O)N[C@H](C(C)C)C(=O)N5CCC[C@H]5C(=O)N(C)CC(=O)N(C)[C@@H](C(C)C)C(=O)O[C@@H]4C)c3nc-2c(C(=O)N[C@@H]2C(=O)N[C@H](C(C)C)C(=O)N3CCC[C@H]3C(=O)N(C)CC(=O)N(C)[C@@H](C(C)C)C(=O)O[C@@H]2C)c(N)c1=O [Actinomycin D] (I: T[dV]P[Sar][NMeV] / II: T[dV]P[Sar][NMeV]; ester I:1-I:C, II:1-II:C; linker I:N-II:N via Actinocin(9to1))
AR-CALUX antagonist result in words [5]: false positive response
AR-CALUX Antagonist classification [5]: N(FP)
Scn (normalized dose response for the specificity control) [6]: >80%
Classification Run1 ([6]; antagonist): N
Classification Run2 ([6]; antagonist, run 2): N(FP)
Classification Run3 ([6]; antagonist): N(FP)
Shift Direction of specificity control dose response [6]: Right

[N-]=[N+]=[N-].[Na+] [Sodium azide]
Agonist classification per run, Lab 1 ([4]; Lab 1, 3 runs): N N N
Agonist classification per run, Lab 2 ([4]; Lab 2, 3 runs): N N N
Agonist classification per run, Lab 3 ([4]; Lab 3, 3 runs): N N N
Agonist classification per run, Lab 4 ([4]; Lab 4, 3 runs): N N N
Antagonist classification per run, Lab 1 ([5]; Lab 1, 3 runs): N N N
Antagonist classification per run, Lab 2 ([5]; Lab 2, 3 runs): N N N
Antagonist classification per run, Lab 3 ([5]; Lab 3, 3 runs): N N N
Antagonist classification per run, Lab 4 ([5]; Lab 4, 3 runs): N N N
Solubility in DMSO, Lab 1 (physchem; DMSO, Lab 1, highest tested 50 mg/ml): 15000 µg/mL
Solubility in DMSO, Lab 2 (physchem; DMSO, Lab 2, highest tested 50 mg/ml): 15000 µg/mL
Solubility in DMSO, Lab 3 (physchem; DMSO, Lab 3, highest tested 50 mg/ml): 15000 µg/mL
Solubility in DMSO, Lab 4 (physchem; DMSO, Lab 4, highest tested 50 mg/ml): 15000 µg/mL
Solubility in medium, Lab 1 (physchem; assay medium, Lab 1): 15 µg/mL
Solubility in medium, Lab 2 (physchem; assay medium, Lab 2): 15 µg/mL
Solubility in medium, Lab 3 (physchem; assay medium, Lab 3): 15 µg/mL
Solubility in medium, Lab 4 (physchem; assay medium, Lab 4): 5 µg/mL

CC(=O)O[C@]1(C(C)=O)CC[C@H]2[C@@H]3C=C(Cl)C4=CC(=O)[C@@H]5C[C@@H]5[C@]4(C)[C@H]3CC[C@@]21C [Cyproterone acetate]
highest nontoxic concentration [8]: 3 µM
AR-Reference list agonist result in words (androgen receptor [9]): weak positive
